Measurements reported in US6737383B1, “Herbicidal oxadiazolidines” (priority 1999, dated 2004).

How the values were obtained:
[1] = tested on: crabgrass; test: Test B pre/postemergence crabgrass; format: in vivo, Digitaria sanguinalis
Outline: (§1)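 Herbicidal effect was estimated by eye on a ten-point control scale after plants spent twelve to sixteen days in a greenhouse following soil or foliar treatment. Foliar sprays targeted plants at one to four leaves; all doses were formulated in a non-phytotoxic solvent with surfactant.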

[2] = tested on: smallflower flatsedge; test: Test B flood test smallflower flatsedge; format: in vivo, Cyperus difformis
Outline: (§2)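 Plants were grown to the 2-leaf stage before treatment with test chemical, then held in a greenhouse for twelve to sixteen days. Injury was visually rated against untreated controls on a 0–10 scale, where 0 is no effect and 10 is complete control.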

[3] = tested on: morningglory; test: Test B pre/postemergence morningglory; format: in vivo, Ipomoea hederacea
Outline: as §1

[4] = tested on: soybean; test: Test B pre/postemergence soybean; format: in vivo, Glycine max
Outline: as §1

[5] = tested on: wild oat; test: Test B pre/postemergence wild oat; format: in vivo, Avena fatua
Outline: as §1

[6] = tested on: blackgrass; test: Test B pre/postemergence blackgrass; format: in vivo, Alopecurus myosuroides
Outline: as §1

[7] = tested on: giant foxtail; test: Test B pre/postemergence giant foxtail; format: in vivo, Setaria faberii
Outline: as §1

[8] = tested on: wheat; test: Test B pre/postemergence wheat; format: in vivo, Triticum aestivum
Outline: as §1

[9] = tested on: rape; test: Test B pre/postemergence rape; format: in vivo, Brassica napus
Outline: as §1

[10] = tested on: cocklebur; test: Test B pre/postemergence cocklebur; format: in vivo, Xanthium strumarium
Outline: as §1

[11] = tested on: surinam grass; test: Test B pre/postemergence surinam grass; format: in vivo, Brachiaria decumbens
Outline: as §1

[12] = tested on: bamyardgrass; test: Test B flood test barnyardgrass; format: in vivo, Echinochloa crus-galli
Outline: as §2

[13] = tested on: corn; test: Test B pre/postemergence corn; format: in vivo, Zea mays
Outline: as §1

[14] = tested on: velvetleaf; test: Test B pre/postemergence velvetleaf; format: in vivo, Abutilon theophrasti
Outline: as §1

[15] = tested on: bedstraw; test: Test B pre/postemergence bedstraw; format: in vivo, Galium aparine
Outline: as §1

[16] = tested on: duck salad; test: Test B flood test duck salad; format: in vivo, Heteranthera limosa
Outline: as §2

[17] = Postemergence, Rate 250 g/ha, scale 0 to 10
[18] = Postemergence, Rate 500 g/ha, scale of 0 to 10 where 0 is no effect and 10 is complete control
[19] = Postemergence, Rate 1000 g/ha, scale 0 to 10 (0 no effect, 10 complete control)
[20] = Preemergence, Rate 125 g/ha, scale of 0 to 10 where 0 is no effect and 10 is complete control
[21] = Preemergence, Rate 250 g/ha, scale 0 to 10, 0 is no effect, 10 is complete control
[22] = Preemergence, Rate 500 g/ha, scale 0 to 10, 0 is no effect, 10 is complete control
[23] = Rate 125 g/ha, Postemergence, scale 0 to 10, 0 is no effect, 10 is complete control
[24] = Rate 1000 g/ha, Preemergence, scale 0 to 10 (0 no effect, 10 complete control)
[25] = Pre-emergence, Rate 1000 g/ha, scale 0 to 10 (0 no effect, 10 complete control)
[26] = Rate 125 g/ha, under heading Pre-emergence, flood test species, visual evaluation after twelve to sixteen days
[27] = Rate 250 g/ha, Pre-emergence (flood test species), scale 0 to 10, 0 is no effect, 10 is complete control
[28] = Rate 500 g/ha, Pre-emergence, flood test species, scale 0 to 10 (0 no effect, 10 complete control)

SMILES: CCOP(=O)(OCC)C(C)n1c(=O)on(C(=O)N(c2ccccc2)C(C)C)c1=O (stereo not shown) [Compound 448]
- Crabgrass plant response rating [1, 17]: 0
- Crabgrass plant response rating [1, 18]: 0
- Crabgrass plant response rating [1, 19]: 0
- Plant response rating, Crabgrass [1, 20]: 4
- Crabgrass plant response rating [1, 21]: 4
- Crabgrass plant response rating [1, 22]: 9
- Crabgrass plant response rating [1, 23]: 0
- Plant response rating, Crabgrass [1, 24]: 9
- S. Flatsedge plant response rating [2, 25]: 0
- S. Flatsedge plant response rating (0 to 10 scale, 0 is no effect, 10 is complete control) [2, 26]: 0
- S. Flatsedge plant response rating [2, 27]: 0
- S. Flatsedge plant response rating [2, 28]: 0
- Morningglory plant response rating [3, 17]: 2
- Morningglory plant response rating [3, 18]: 5
- Morningglory plant response rating [3, 19]: 8
- Plant response rating, Morningglory [3, 20]: 0
- Morningglory plant response rating [3, 21]: 0
- Morningglory plant response rating [3, 22]: 0
- Morningglory plant response rating [3, 23]: 0
- Plant response rating, Morningglory [3, 24]: 0
- Soybean plant response rating [4, 17]: 2
- Soybean plant response rating [4, 18]: 5
- Soybean plant response rating [4, 19]: 6
- Plant response rating, Soybean [4, 20]: 0
- Soybean plant response rating [4, 21]: 0
- Soybean plant response rating [4, 22]: 0
- Soybean plant response rating [4, 23]: 1
- Plant response rating, Soybean [4, 24]: 0
- Wild oats plant response rating [5, 17]: 0
- Wild oats plant response rating [5, 18]: 0
- Wild oats plant response rating [5, 19]: 4
- Plant response rating, Wild oats [5, 20]: 0
- Wild oats plant response rating [5, 21]: 0
- Wild oats plant response rating [5, 22]: 0
- Wild oats plant response rating [5, 23]: 0
- Plant response rating, Wild oats [5, 24]: 5
- Blackgrass plant response rating [6, 17]: 0
- Blackgrass plant response rating [6, 18]: 0
- Blackgrass plant response rating [6, 19]: 2
- Plant response rating, Blackgrass [6, 20]: 0
- Blackgrass plant response rating [6, 21]: 0
- Blackgrass plant response rating [6, 22]: 2
- Blackgrass plant response rating [6, 23]: 0
- Plant response rating, Blackgrass [6, 24]: 4
- Giant foxtail plant response rating [7, 17]: 0
- Giant foxtail plant response rating [7, 18]: 0
- Giant foxtail plant response rating [7, 19]: 0
- Plant response rating, Giant foxtail [7, 20]: 2
- Giant foxtail plant response rating [7, 21]: 3
- Giant foxtail plant response rating [7, 22]: 9
- Giant foxtail plant response rating [7, 23]: 0
- Plant response rating, Giant foxtail [7, 24]: 9
- Wheat plant response rating [8, 17]: 0
- Wheat plant response rating [8, 18]: 0
- Wheat plant response rating [8, 19]: 0
- Plant response rating, Wheat [8, 20]: 0
- Wheat plant response rating [8, 21]: 0
- Wheat plant response rating [8, 22]: 0
- Wheat plant response rating [8, 23]: 0
- Plant response rating, Wheat [8, 24]: 0
- Rape plant response rating [9, 17]: 0
- Rape plant response rating [9, 18]: 0
- Rape plant response rating [9, 19]: 0
- Plant response rating, Rape [9, 20]: 0
- Rape plant response rating [9, 21]: 0
- Rape plant response rating [9, 22]: 0
- Rape plant response rating [9, 23]: 0
- Plant response rating, Rape [9, 24]: 0
- Cocklebur plant response rating [10, 17]: 0
- Cocklebur plant response rating [10, 18]: 0
- Cocklebur plant response rating [10, 19]: 0
- Plant response rating, Cocklebur [10, 20]: 0
- Cocklebur plant response rating [10, 21]: 0
- Cocklebur plant response rating [10, 23]: 0
- B. signalgrass plant response rating ([11]; Postemergence, Rate 250 g/ha, scale 0 to 10, 0 no effect, 10 complete control): 0
- B. signalgrass plant response rating [11, 18]: 0
- B. signalgrass plant response rating [11, 19]: 0
- Plant response rating, B. signalgrass [11, 20]: 0
- B. signalgrass plant response rating [11, 21]: 0
- B. signalgrass plant response rating [11, 22]: 2
- B. signalgrass plant response rating [11, 23]: 0
- Plant response rating, B. signalgrass [11, 24]: 4
- Barnyardgrass plant response rating [12, 25]: 0
- Barnyardgrass plant response rating (0 to 10 scale, 0 is no effect, 10 is complete control) [12, 26]: 0
- Barnyardgrass plant response rating [12, 27]: 0
- Barnyardgrass plant response rating [12, 28]: 0
- Corn plant response rating [13, 17]: 0
- Corn plant response rating [13, 18]: 0
- Corn plant response rating [13, 19]: 0
- Plant response rating, Corn [13, 20]: 0
- Corn plant response rating [13, 21]: 0
- Corn plant response rating [13, 22]: 0
- Corn plant response rating [13, 23]: 0
- Plant response rating, Corn [13, 24]: 2
- Velvetleaf plant response rating [14, 17]: 0
- Velvetleaf plant response rating [14, 18]: 0
- Velvetleaf plant response rating [14, 19]: 2
- Plant response rating, Velvetleaf [14, 20]: 0
- Velvetleaf plant response rating [14, 21]: 0
- Velvetleaf plant response rating [14, 22]: 0
- Velvetleaf plant response rating [14, 23]: 0
- Plant response rating, Velvetleaf [14, 24]: 0
- Bedstraw plant response rating [15, 17]: 0
- Plant response rating, Bedstraw [15, 20]: 0
- Bedstraw plant response rating [15, 21]: 0
- Bedstraw plant response rating [15, 22]: 0
- Bedstraw plant response rating [15, 23]: 0
- Plant response rating, Bedstraw [15, 24]: 0
- Ducksalad plant response rating [16, 25]: 0
- Ducksalad plant response rating (0 to 10 scale, 0 is no effect, 10 is complete control) [16, 26]: 0
- Ducksalad plant response rating [16, 27]: 0
- Ducksalad plant response rating [16, 28]: 0
